According to ChEMBL document CHEMBL2412976, “Structure optimization of 2-benzamidobenzoic acids as PqsD inhibitors for Pseudomonas aeruginosa infections and elucidation of binding mode by SPR, STD NMR, and molecular docking” (J Med Chem, 2013):
Substitutions are numbered along the chain they refer to. Blank lines part the entries; values can stand above or below the compound they belong to. Calls of active or inactive are those of the source. The rule behind the calls is not given here.

How the values were obtained:
[1] = Inhibition of Pseudomonas aeruginosa PqsD using ACoA/beta-ketodecanoic acid as substrate assessed as HHQ formation incubated for 10 mins prior to ACoA/beta-ketodecanoic acid addition measured for 40 mins
Pseudomonas aeruginosa [2] = assay: Binding affinity to Pseudomonas aeruginosa wild-type PqsD by NMR spectroscopy analysis
[3] = Inhibition of Pseudomonas aeruginosa PqsD using ACoA/beta-ketodecanoic acid as substrate assessed as HHQ formation incubated for 30 mins prior to ACoA addition followed by 10 mins after treated with beta-ketodecanoic acid measured for 40 mins
[4] = tested on: T1, 2-heptyl-4(1H)-quinolone synthase PqsD (Pseudomonas aeruginosa), A0A0C7ACN7 [H258F]; assay: Binding affinity to Pseudomonas aeruginosa PqsD H257F mutant expressed in Escherichia coli BL21 (lambdaDE3) cells by surface plasmon resonance analysis
T1 sequence (whole entry): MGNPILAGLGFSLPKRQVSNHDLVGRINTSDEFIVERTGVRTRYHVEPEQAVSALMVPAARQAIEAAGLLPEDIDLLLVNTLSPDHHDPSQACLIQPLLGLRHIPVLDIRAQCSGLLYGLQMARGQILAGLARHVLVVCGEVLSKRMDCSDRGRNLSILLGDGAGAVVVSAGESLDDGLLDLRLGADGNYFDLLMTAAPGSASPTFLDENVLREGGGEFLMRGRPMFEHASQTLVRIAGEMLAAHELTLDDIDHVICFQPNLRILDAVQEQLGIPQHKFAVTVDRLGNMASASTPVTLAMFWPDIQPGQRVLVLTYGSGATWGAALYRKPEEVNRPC

[5] = tested on: T2, 2-heptyl-4(1H)-quinolone synthase PqsD (Pseudomonas aeruginosa), A0A0C7ACN7 [C113A]; assay: Binding affinity to Pseudomonas aeruginosa PqsD C112A mutant expressed in Escherichia coli BL21 (lambdaDE3) cells by surface plasmon resonance analysis
T2 sequence (whole entry): T1 sequence (whole entry) with C113A, F258H

[6] = tested on: T3, 2-heptyl-4(1H)-quinolone synthase PqsD (Pseudomonas aeruginosa), A0A0C7ACN7 [S318F]; assay: Binding affinity to Pseudomonas aeruginosa PqsD S317F mutant expressed in Escherichia coli BL21 (lambdaDE3) cells by surface plasmon resonance analysis
T3 sequence (whole entry): T1 sequence (whole entry) with F258H, S318F

Pseudomonas aeruginosa [7] = assay: Binding affinity to Pseudomonas aeruginosa wild-type PqsD expressed in Escherichia coli BL21 (lambdaDE3) cells by surface plasmon resonance analysis
Pseudomonas aeruginosa [8] = assay: Inhibition of Pseudomonas aeruginosa PqsD assessed as HHQ formation at 50 uM incubated 30 mins prior to substrate addition
Pseudomonas aeruginosa [9] = assay: Binding affinity to Pseudomonas aeruginosa PqsD at 20 uM by surface plasmon resonance analysis in presence of ACoA
Pseudomonas aeruginosa [10] = assay: Binding affinity to Pseudomonas aeruginosa PqsD at 20 uM by surface plasmon resonance analysis in absence of ACoA
[11] = Binding affinity to Pseudomonas aeruginosa wild-type PqsD by isothermal titration calorimetry
Pseudomonas aeruginosa [12] = assay: Binding affinity to Pseudomonas aeruginosa PqsD at 20 uM incubated prior to ACoA addition by surface plasmon resonance analysis in presence of ACoA
Pseudomonas aeruginosa [13] = assay: Binding affinity to Pseudomonas aeruginosa PqsD at 100 uM by surface plasmon resonance analysis in presence of ACoA

Compound: CCN(CC)S(=O)(=O)c1cccc(C(=O)Nc2ccc(-c3cccc(C(N)=O)c3)cc2C(=O)O)c1
- IC50 [1]: 3.8 µM

Compound: CCN(CC)S(=O)(=O)c1cccc(C(=O)Nc2cccc(O)c2C(=O)O)c1
- Activity (Pseudomonas aeruginosa [2]): Active
- IC50 [3]: 1.1 µM
- IC50 [1]: 1.2 µM

Compound: CCCN(CCC)S(=O)(=O)c1cccc(C(=O)Nc2ccccc2C(=O)O)c1
- IC50 [1]: 5.4 µM

Compound: CCN(CC)S(=O)(=O)c1cc(C(=O)Nc2ccccc2C(=O)O)ccc1Br
- Activity [4]: Active
- Activity [5]: Active
- Activity [6]: Active
- Activity (Pseudomonas aeruginosa [7]): Active
- IC50 [1]: 6.9 µM

Compound: O=C(Nc1ccccc1C(=O)O)c1cccc(S(=O)(=O)N2CCCCC2)c1
- IC50 [1]: 14.4 µM

Compound: NS(=O)(=O)c1cccc(C(=O)Nc2ccccc2C(=O)O)c1
- IC50 [1]: 43.6 µM

Compound: CN(C)S(=O)(=O)c1cccc(C(=O)Nc2ccccc2C(=O)O)c1
- inhibition (Pseudomonas aeruginosa [8]): 35%

Compound: CCN(CC)S(=O)(=O)c1cccc(C(=O)Nc2ccc(Br)cc2C(=O)O)c1
- Activity [4]: Active
- Activity [5]: Active
- Activity [6]: Active
- Activity (Pseudomonas aeruginosa [7]): Active
- IC50 [3]: 7 µM
- Activity (Pseudomonas aeruginosa [9]): Active
- IC50 [1]: 9.9 µM
- Activity (Pseudomonas aeruginosa [10]): Active

Compound: O=C(Nc1ccccc1C(=O)O)c1cccc(S(=O)(=O)N2CCCC2)c1
- inhibition (Pseudomonas aeruginosa [8]): 47%

Compound: CCN(Cc1ccccc1)S(=O)(=O)c1cccc(C(=O)Nc2ccccc2C(=O)O)c1
- Activity (Pseudomonas aeruginosa [2]): Active
- IC50 [3]: 12.9 µM
- IC50 [1]: 16.5 µM

Compound: CCN(CC)S(=O)(=O)c1cccc(C(=O)Nc2ccc(-c3cccc(C(=O)O)c3)cc2C(=O)O)c1
- IC50 [3]: 1.6 µM
- IC50 [1]: 1.5 µM

Compound: CCN(CC)S(=O)(=O)c1cccc(C(=O)Nc2ccc(-c3ccccc3)cc2C(=O)O)c1
- Kd [11]: 5.2 µM
- Activity [4]: Active
- Activity [5]: Active
- Activity [6]: Active
- Activity (Pseudomonas aeruginosa [7]): Active
- IC50 [3]: 4.2 µM
- Activity (Pseudomonas aeruginosa [12]): Active
- Activity (Pseudomonas aeruginosa [9]): Active
- IC50 [1]: 3 µM
- Activity (Pseudomonas aeruginosa [10]): Active

Compound: O=C(Nc1ccccc1C(=O)O)c1cccc(S(=O)(=O)N2CCCCCC2)c1
- IC50 [1]: 14.8 µM

Compound: O=C(Nc1ccccc1C(=O)O)c1cccc(S(=O)(=O)N2CCOCC2)c1
- inhibition (Pseudomonas aeruginosa [8]): 16%

Compound: Cc1ccc(S(=O)(=O)c2cc(O)c3ccccc3c2O)cc1
- IC50 [3]: 1.1 µM
- Activity (Pseudomonas aeruginosa [13]): inactive
- IC50 [1]: 0.15 µM

Compound: O=[N+]([O-])c1ccccc1C(O)c1ccccc1 (configuration not stated)
- IC50 [1]: 3.2 µM

Compound: CCN(CC)S(=O)(=O)c1cccc(C(=O)Nc2cccc(OC)c2C(=O)O)c1
- inhibition (Pseudomonas aeruginosa [8]): 44%

Compound: CCN(CC)S(=O)(=O)c1cccc(C(=O)Nc2cccc(C(=O)O)c2)c1
- inhibition (Pseudomonas aeruginosa [8]): 13%

Compound: CCN(CC)S(=O)(=O)c1cccc(C(=O)Nc2ccccc2C(N)=O)c1
- inhibition (Pseudomonas aeruginosa [8]): 21%

Compound: O=C(Nc1ccccc1C(=O)O)c1ccc(-c2ccccc2)c(Oc2ccccc2)c1
- IC50 [1]: 6.6 µM

Compound: CCN(CC)C(=O)c1cccc(C(=O)Nc2ccccc2C(=O)O)c1
- inhibition (Pseudomonas aeruginosa [8]): < 10%

The next lines start with the values.

- IC50 [1]: 8.9 µM
Compound: CCN(CC)S(=O)(=O)c1cccc(C(=O)Nc2ccc([N+](=O)[O-])cc2C(=O)O)c1

- IC50 [1]: 6.6 µM
Compound: CCN(CC)S(=O)(=O)c1cc(C(=O)Nc2ccc(F)cc2C(=O)O)ccc1Br

- IC50 [1]: 13 µM
Compound: CCN(CC)S(=O)(=O)c1ccc(C(=O)Nc2ccc(Br)cc2C(=O)O)cc1

- IC50 [1]: 26.2 µM
Compound: CCN(CC)S(=O)(=O)c1cccc(C(=O)Nc2ccc(C#N)cc2C(=O)O)c1

- IC50 [1]: 9.4 µM
Compound: CCN(CC)S(=O)(=O)c1cccc(C(=O)Nc2cc(Cl)ccc2C(=O)O)c1

- IC50 [1]: 12.4 µM
Compound: CCN(CC)S(=O)(=O)c1cccc(C(=O)Nc2ccc(C(F)(F)F)cc2C(=O)O)c1

- IC50 [1]: 1.9 µM
Compound: CCN(CC)S(=O)(=O)c1cccc(C(=O)Nc2ccc(-c3ccc(C(N)=O)cc3)cc2C(=O)O)c1

- IC50 [1]: 8 µM
Compound: CCN(CC)S(=O)(=O)c1cccc(C(=O)Nc2cc(F)ccc2C(=O)O)c1

- IC50 [1]: 39 µM
Compound: CCN(CC)S(=O)(=O)c1cccc(C(=O)Nc2cccc(Cl)c2C(=O)O)c1

- IC50 [1]: 18.4 µM
Compound: CCN(CC)S(=O)(=O)c1cccc(C(=O)Nc2ccc(C)cc2C(=O)O)c1

- IC50 [1]: 3.8 µM
Compound: CCN(CC)S(=O)(=O)c1cc(C(=O)Nc2ccc(Br)cc2C(=O)O)ccc1Br

- IC50 [1]: 24.9 µM
Compound: CCN(CC)S(=O)(=O)c1cccc(C(=O)Nc2cccc(F)c2C(=O)O)c1

- Activity (Pseudomonas aeruginosa [2]): Active
- IC50 [3]: 19.4 µM
- IC50 [1]: 19.8 µM
- inhibition (Pseudomonas aeruginosa [8]): 69%
Compound: CCN(CC)S(=O)(=O)c1cccc(C(=O)Nc2ccccc2C(=O)O)c1

- IC50 [1]: 25.5 µM
Compound: CCN(CC)C(=O)c1cccc(C(=O)Nc2ccc(Br)cc2C(=O)O)c1

- inhibition (Pseudomonas aeruginosa [8]): 44%
Compound: CCN(CC)S(=O)(=O)c1ccc(C(=O)Nc2ccccc2C(=O)O)cc1

- IC50 [1]: 11.4 µM
Compound: CCN(CC)S(=O)(=O)c1cccc(C(=O)Nc2ccc(F)cc2C(=O)O)c1

- IC50 [1]: 27.3 µM
Compound: CCN(CC)S(=O)(=O)c1cc(C(=O)Nc2ccccc2C(=O)O)ccc1C

- IC50 [3]: 2 µM
- IC50 [1]: 2.7 µM
Compound: CCN(CC)S(=O)(=O)c1cccc(C(=O)Nc2ccc(-c3ccc(C(=O)O)cc3)cc2C(=O)O)c1

- IC50 [1]: 6.3 µM
Compound: CCN(CC)S(=O)(=O)c1cccc(C(=O)Nc2cc([N+](=O)[O-])ccc2C(=O)O)c1

- inhibition (Pseudomonas aeruginosa [8]): 39%
Compound: CCc1ccc(C(=O)Nc2ccccc2C(=O)O)cc1S(=O)(=O)N(CC)CC
